{"source": "patent US10780071B2", "about": "“Compositions, methods and/or devices for prevention and/or treatment of dry eye disorders” (Brien Holden Vision Institute Limited, priority 2012, dated 2020)", "key": {"[1]": {"tested_on": "S. aureus 020 & 134, and S. epidermidis 024 & 025", "experiment": "Bacterial growth, summary over the test strains", "format": "cell-based", "details": "concentrations of Tables 1-4; 24 h", "method": "(§1) The bacterial strains S. aureus 020 & 134, and S. epidermidis 024 & 025 were grown at 37° C. in TSB treated with 0, 6.25 or 12.5 μg/ml of glycerol monolaurate or lauric acid as well as in TSB extraction of glycerol monolaurate ointment prior to assay of bacterial growth and lipase activity. After incubation for 24 h, bacterial growth was determined by measuring the optical density of cultures using a spectrophotometer at a wavelength of 660 nm. Lipase activity by test bacterial strains under various treatments were assessed by examining the lipase activity in bacterial culture supernatants with a QuantiChrom™ Lipase Assay Kit."}, "lipase [2]": {"tested_on": "lipase", "experiment": "Lipase activity in bacterial culture supernatants (QuantiChrom Lipase Assay Kit)", "format": "cell-based", "details": "TSB, 37° C., 24 h", "method": "as §1"}, "S. epidermidis 025": {"tested_on": "S. epidermidis 025", "experiment": "Bacterial growth, optical density of cultures at 660 nm", "format": "cell-based", "details": "read-out: Inhibition of Growth", "method": "as §1"}, "S. epidermidis 024": {"tested_on": "S. epidermidis 024", "experiment": "Bacterial growth, optical density of cultures at 660 nm", "format": "cell-based", "details": "read-out: Inhibition of Growth", "method": "as §1"}, "lipase [3]": {"tested_on": "lipase", "experiment": "Lipase activity in culture supernatants, summary over the test strains", "format": "cell-based, S. aureus 020 & 134, and S. epidermidis 024 & 025", "method": "as §1, with “and S. epidermidis 024 & 025 were grown at 37° C. in TSB treated with 0, 6.25 or 12.5 μg/ml of glycerol monolaurate or lauric acid as well as in TSB extraction” left out"}, "S. aureus 020": {"tested_on": "S. aureus 020", "experiment": "Bacterial growth, optical density of cultures at 660 nm", "format": "cell-based", "details": "Staphylococcus aureus, 020, 24 h, read-out: Inhibition of Growth", "method": "as §1"}, "S. aureus 134": {"tested_on": "S. aureus 134", "experiment": "Bacterial growth, optical density of cultures at 660 nm", "format": "cell-based", "details": "Staphylococcus aureus, TSB, 37° C., 24 h", "method": "as §1"}, "lipase [4]": {"tested_on": "lipase", "experiment": "Lipase activity in bacterial culture supernatants (QuantiChrom Lipase Assay Kit)", "format": "cell-based", "details": "S. aureus 134, TSB, 37° C., 24 h", "method": "as §1, with “epidermidis 024 & 025 were grown at 37° C. in TSB treated with 0, 6.25 or 12.5 μg/ml of glycerol monolaurate or lauric acid as well as” left out"}, "lipase [5]": {"tested_on": "lipase", "experiment": "Lipase activity in bacterial culture supernatants (QuantiChrom Lipase Assay Kit)", "format": "cell-based", "details": "S. aureus 020, TSB, 37° C., 24 h", "method": "as §1, with “and S. epidermidis 024 & 025 were grown at 37° C. in TSB treated with 0, 6.25 or 12.5 μg/ml of glycerol monolaurate or lauric acid as well as” left out"}, "[6]": {"details": "Staphylococcus epidermidis, 025, 24 h"}, "[7]": {"details": "Staphylococcus epidermidis, 024, 24 h"}, "[8]": {"details": "glycerol monolaurate 12.5 μg/ml"}, "[9]": {"details": "glycerol monolaurate 17.5 μg/ml"}}, "note": "Like-named read-outs stand apart in the source and are kept apart here.", "data": [{"smiles": "CCCCCCCCCCCC(=O)O", "note": "[Lauric acid]", "values": [{"measurement": "effect on growth of the bacterial strains at the concentrations used", "setting": "[1]", "value": "do not substantially inhibit growth"}, {"measurement": "Inhibition of Lipase activity", "setting": "lipase [2]; S. epidermidis 024, lauric acid 6.25 μg/ml", "value": 46, "unit": "%"}, {"measurement": "Inhibition of Lipase activity", "setting": "lipase [2]; S. epidermidis 024, lauric acid 12.5 μg/ml", "value": 70, "unit": "%"}, {"measurement": "Inhibition of Lipase activity", "setting": "lipase [2]; S. epidermidis 025, lauric acid 6.25 μg/ml", "value": 48, "unit": "%"}, {"measurement": "Inhibition of Lipase activity", "setting": "lipase [2]; S. epidermidis 025, lauric acid 12.5 μg/ml", "value": 72, "unit": "%"}, {"measurement": "inhibition at 6.25 µg/mL", "setting": "S. epidermidis 025; Staphylococcus epidermidis, S. epidermidis 025, lauric acid 6.25 μg/ml, TSB, 37° C., 24 h", "value": 0, "unit": "%"}, {"measurement": "inhibition at 12.5 µg/mL", "setting": "S. epidermidis 025; Staphylococcus epidermidis, S. epidermidis 025, lauric acid 12.5 μg/ml, TSB, 37° C., 24 h", "value": 0, "unit": "%"}, {"measurement": "inhibition at 6.25 µg/mL", "setting": "S. epidermidis 024; Staphylococcus epidermidis, S. epidermidis 024, lauric acid 6.25 μg/ml, TSB, 37° C., 24 h", "value": 0, "unit": "%"}, {"measurement": "inhibition at 12.5 µg/mL", "setting": "S. epidermidis 024; Staphylococcus epidermidis, S. epidermidis 024, lauric acid 12.5 μg/ml, TSB, 37° C., 24 h", "value": 0, "unit": "%"}, {"measurement": "inhibits lipase activity by approximately (range over Table 2)", "setting": "lipase [3]; S. epidermidis 024 and 025, 6.25 and 12.5 μg/ml (Table 2)", "value": "46-72%"}]}, {"smiles": "CCCCCCCCCCCC(=O)OCC(O)CO", "note": "(stereo not shown) [Glycerol monolaurate]", "values": [{"measurement": "effect on growth of the bacterial strains at the concentrations used", "setting": "[1]", "value": "do not substantially inhibit growth"}, {"measurement": "Inhibition of Lipase activity", "setting": "lipase [2]; S. epidermidis 024, glycerol monolaurate 6.25 μg/ml", "value": 46, "unit": "%"}, {"measurement": "Inhibition of Lipase activity", "setting": "lipase [2]; S. epidermidis 024, glycerol monolaurate 12.5 μg/ml", "value": 70, "unit": "%"}, {"measurement": "Inhibition of Lipase activity", "setting": "lipase [2]; S. epidermidis 025, glycerol monolaurate 6.25 μg/ml", "value": 48, "unit": "%"}, {"measurement": "Inhibition of Lipase activity", "setting": "lipase [2]; S. epidermidis 025, glycerol monolaurate 12.5 μg/ml", "value": 72, "unit": "%"}, {"measurement": "inhibition at 6.25 µg/mL", "setting": "S. epidermidis 025; [6]", "value": 0, "unit": "%"}, {"measurement": "inhibition at 12.5 µg/mL", "setting": "S. epidermidis 025; [6]", "value": 0, "unit": "%"}, {"measurement": "inhibition at 6.25 µg/mL", "setting": "S. epidermidis 024; [7]", "value": 0, "unit": "%"}, {"measurement": "inhibition at 12.5 µg/mL", "setting": "S. epidermidis 024; [7]", "value": 0, "unit": "%"}, {"measurement": "inhibition at 5 µg/mL", "setting": "S. aureus 020", "value": 1, "unit": "%"}, {"measurement": "inhibition at 7.5 µg/mL", "setting": "S. aureus 020", "value": 0, "unit": "%"}, {"measurement": "inhibition at 10 µg/mL", "setting": "S. aureus 020", "value": 4, "unit": "%"}, {"measurement": "inhibition at 12.5 µg/mL", "setting": "S. aureus 020", "value": 4, "unit": "%"}, {"measurement": "inhibition at 15 µg/mL", "setting": "S. aureus 020", "value": 2, "unit": "%"}, {"measurement": "inhibition at 17.5 µg/mL", "setting": "S. aureus 020", "value": 0, "unit": "%"}, {"measurement": "inhibition at 10 µg/mL", "setting": "S. aureus 134; glycerol monolaurate 10 μg/ml", "value": 0, "unit": "%"}, {"measurement": "inhibition at 12.5 µg/mL", "setting": "S. aureus 134; [8]", "value": 0, "unit": "%"}, {"measurement": "inhibition at 15 µg/mL", "setting": "S. aureus 134; glycerol monolaurate 15 μg/ml", "value": 1, "unit": "%"}, {"measurement": "inhibition at 17.5 µg/mL", "setting": "S. aureus 134; [9]", "value": 0, "unit": "%"}, {"measurement": "Inhibition of Lipase activity", "setting": "lipase [4]; glycerol monolaurate 10 μg/ml", "value": 25, "unit": "%"}, {"measurement": "Inhibition of Lipase activity", "setting": "lipase [4]; [8]", "value": 38, "unit": "%"}, {"measurement": "Inhibition of Lipase activity", "setting": "lipase [4]; glycerol monolaurate 15 μg/ml", "value": 49, "unit": "%"}, {"measurement": "Inhibition of Lipase activity", "setting": "lipase [4]; [9]", "value": 63, "unit": "%"}, {"measurement": "Inhibition of Lipase activity", "setting": "lipase [5]; glycerol monolaurate 5 μg/ml", "value": 16, "unit": "%"}, {"measurement": "Inhibition of Lipase activity", "setting": "lipase [5]; glycerol monolaurate 7.5 μg/ml", "value": 29, "unit": "%"}, {"measurement": "Inhibition of Lipase activity", "setting": "lipase [5]; glycerol monolaurate 10 μg/ml", "value": 50, "unit": "%"}, {"measurement": "Inhibition of Lipase activity", "setting": "lipase [5]; [8]", "value": 63, "unit": "%"}, {"measurement": "Inhibition of Lipase activity", "setting": "lipase [5]; glycerol monolaurate 15 μg/ml", "value": 73, "unit": "%"}, {"measurement": "Inhibition of Lipase activity", "setting": "lipase [5]; [9]", "value": 88, "unit": "%"}, {"measurement": "inhibits lipase activity by approximately (range over Table 1)", "setting": "lipase [3]; all strains and concentrations of Table 1 (5-17.5 μg/ml)", "value": "16-88%"}]}]}
